Experimental data: patent publication US20230210853A1 (Halia Therapeutics, Inc., priority 2020, published 2023)

These compounds were tested against T1, full-length recombinant human NEK7 (Homo sapiens, UniProt Q8TDX7) (assay: NEK7 enzymatic assay ([33P]-ATP, casein substrate)). Details: Table 2a; recombinant human NEK7, casein substrate.
T1 construct: full-length recombinant human NEK7; GST (N); purchased SignalChem N09-10G; host or cells: Sf9 insect cells (baculovirus)
Format: biochemical
Protocol: In some embodiments, the IC50 of the compounds of Structure (I), (Ia), (Ib), (Ic), (Id), (Ie), or (If) to inhibit NEK7 was determined by the concentration of the compound required to inhibit 50% of the activity of the NEK kinase.
(§1) Casein substrate (from bovine milk, hydrolyzed and partially dephosphorylated mixture of α, β and κ caseins, obtained from Sigma Aldrich, catalogue #C4765, diluted in distilled water to a final concentration of 1 mg/mL) and full-length recombinant human NEK7 (expressed by baculovirus in Sf9 insect cells using a N-terminal GST tag, obtained from SignalChem, catalogue #N09-10G, 0.1 μg/μL) were mixed in assay buffer (20 mM Hepes pH 7.5, 10 mM MgCl2, 1 mM EGTA, 0.02% Brij35, 0.02 mg/ml BSA, 0.1 mM Na3 VO4, 2 mM DTT, 1% DMSO). Compounds of interest (serial 3-fold dilution in DMSO from 10 μM to 0.5 nM) or vehicle (1% DMSO) were dispensed into the kinase reaction mixture by Acoustic technology (Echo550, nanoliter range). After incubation at room temperature for 20 minutes, the kinase reaction was initiated by addition of [^33P]-ATP (specific activity 10 μCi/μl) and the mixture was incubated at room temperature for 2 hours. The reaction was then stopped by spotting the reaction mixture on strips of phosphocellulose P81 paper. Following washing, the radioactivity of the P81 paper was measured and kinase activity data were expressed as the percent remaining kinase activity in test samples compared to vehicle reactions. IC50 values and curve fits were obtained using Prism (GraphPad Software).
as §1, with “μg/L)” for “μg/μL)”, “Na3VO4,” for “Na3 VO4,”, “(Echo550;” for “(Echo550,”

T1 sequence (Q8TDX7 whole entry): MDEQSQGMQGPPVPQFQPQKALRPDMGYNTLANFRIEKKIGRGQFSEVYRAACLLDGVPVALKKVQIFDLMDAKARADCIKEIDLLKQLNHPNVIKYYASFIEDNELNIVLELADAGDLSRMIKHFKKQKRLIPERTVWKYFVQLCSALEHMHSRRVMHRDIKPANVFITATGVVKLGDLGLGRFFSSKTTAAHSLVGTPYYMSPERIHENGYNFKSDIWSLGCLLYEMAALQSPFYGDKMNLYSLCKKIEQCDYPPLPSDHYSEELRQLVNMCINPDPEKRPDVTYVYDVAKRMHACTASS

SMILES	IC50 [nM]
CC(C)(C)c1cc(NC(=O)Nc2ccc(-c3nn(C4COC4)c4ncnc(N)c34)cc2F)no1 [Ia-23, 1-(4-(4-amino-1-(oxetan-3-yl)-1H-pyrazolo[3,4-d]pyrimidin-3-yl)-2-fluorophenyl)-3-(5-(tert-butyl)isoxazol-3-yl)urea]	< 150
CC(C)(C)c1cc(NC(=O)Nc2ccc(-c3nn(C4CCOC4)c4ncnc(N)c34)cc2F)on1 (centres unmarked) [Ia-24, 1-(4-(4-amino-1-(tetrahydrofuran-3-yl)-1H-pyrazolo[3,4-d]pyrimidin-3-yl)-2-fluorophenyl)-3-(3-(tert-butyl)isoxazol-5-yl)urea]	< 150
C=CCn1nc(-c2ccc(NC(=O)Nc3cc(C(C)(C)C)on3)c(F)c2)c2c(N)ncnc21 [Ia-26]	151 to 300
CC(C)(F)c1cc(NC(=O)Nc2ccc(-c3nn(C4CC4)c4ncnc(N)c34)cc2F)on1 [Ia-27, 1-(4-(4-amino-1-cyclopropyl-1H-pyrazolo[3,4-d]pyrimidin-3-yl)-2-fluorophenyl)-3-(3-(2-fluoropropan-2-yl)isoxazol-5-yl)urea]	501 to 1500
Cn1nc(-c2ccc(NC(=O)Nc3cc(C(C)(C)C)no3)c(F)c2)c2c(N)ncnc21 [Ia-29, 1-(4-(4-amino-1-methyl-1H-pyrazolo[3,4-d]pyrimidin-3-yl)-2-fluorophenyl)-3-(3-(tert-butyl)isoxazol-5-yl)urea]	< 150
CC(C)(C)c1cc(NC(=O)Nc2ccc(-c3nn(C4CC4)c4ccnc(N)c34)cc2)on1 [Ia-31, 1-(4-(4-amino-1-cyclopropyl-1H-pyrazolo[4,3-c]pyridin-3-yl)phenyl)-3-(3-(tert-butyl)isoxazol-5-yl)urea]	501 to 1500
CC(C)(C)c1cc(NC(=O)Nc2ccc(-c3nn(C4CC4)c4ncnc(N)c34)cc2F)sn1 [Ia-35, 1-(4-(4-amino-1-cyclopropyl-1H-pyrazolo[3,4-d]pyrimidin-3-yl)-2-fluorophenyl)-3-(3-(tert-butyl)isothiazol-5-yl)urea]	501 to 1500
CC(C)(C)c1nnc(NC(=O)Nc2ccc(-c3nn(C4CC4)c4ncnc(N)c34)cc2F)o1 [Ia-36, 1-(4-(4-amino-1-cyclopropyl-1H-pyrazolo[3,4-d]pyrimidin-3-yl)-2-fluorophenyl)-3-(5-(tert-butyl)-1,3,4-oxadiazol-2-yl)urea]	501 to 1500
Nc1ncnc2c1c(-c1ccc(NC(=O)Nc3cc(C(F)(F)F)no3)c(F)c1)nn2C1CC1 [Ia-39, 1-(4-(4-amino-1-cyclopropyl-1H-pyrazolo[3,4-d]pyrimidin-3-yl)-2-fluorophenyl)-3-(3-(trifluoromethyl)isoxazol-5-yl)urea]	151 to 300
CCC(CC)c1cc(NC(=O)Nc2ccc(-c3nn(C4CC4)c4ncnc(N)c34)cc2F)on1 [Ia-40, 1-(4-(4-amino-1-cyclopropyl-1H-pyrazolo[3,4-d]pyrimidin-3-yl)-2-fluorophenyl)-3-(3-(pentan-3-yl)isoxazol-5-yl)urea]	151 to 300
CC(C)c1cc(NC(=O)Nc2ccc(-c3nn(C4CC4)c4ncnc(N)c34)cc2F)on1 [Ia-41, 1-(4-(4-amino-1-cyclopropyl-1H-pyrazolo[3,4-d]pyrimidin-3-yl)-2-fluorophenyl)-3-(3-isopropylisoxazo1-5-yl)urea]	301 to 500
CCc1cc(NC(=O)Nc2ccc(-c3nn(C4CC4)c4ncnc(N)c34)cc2F)on1 [Ia-42, 1-(4-(4-amino-1-cyclopropyl-1H-pyrazolo[3,4-d]pyrimidin-3-yl)-2-fluorophenyl)-3-(3-ethylisoxazol-5-yl)urea]	< 150
CCC(C)c1cc(NC(=O)Nc2ccc(-c3nn(C4CC4)c4ncnc(N)c34)cc2F)on1 (centres unmarked) [Ia-43, 1-(4-(4-amino-1-cyclopropyl-1H-pyrazolo[3,4-d]pyrimidin-3-yl)-2-fluorophenyl)-3-(3-(sec-butyl)isoxazol-5-yl)urea]	151 to 300
CC1(c2cc(NC(=O)Nc3ccc(-c4nn(C5CC5)c5ncnc(N)c45)cc3F)on2)CCC1 [Ia-44, 1-(4-(4-amino-1-cyclopropyl-1H-pyrazolo[3,4-d]pyrimidin-3-yl)-2-fluorophenyl)-3-(3-(1-methylcyclobutyl)isoxazol-5-yl)urea]	151 to 300
Cc1cc(-c2nn(C3CC3)c3ncnc(N)c23)ccc1NC(=O)Nc1cc(C2(C(F)(F)F)CC2)no1 [Ia-48, 1-(4-(4-amino-1-cyclopropyl-1H-pyrazolo[3,4-d]pyrimidin-3-yl)-2-methylphenyl)-3-(3-(1-(trifluoromethyl)cyclopropyl)isoxazol-5-yl)urea]	301 to 500
Nc1ncnc2c1c(-c1ccc(NC(=O)Nc3cc(C4(C(F)(F)F)CC4)no3)nc1)nn2C1COC1 [Ia-61]	151 to 300

Same assay, conditions: Table 2b; recombinant human NEK7, casein substrate

SMILES	IC50 [nM]
CC(C)(C)c1cc(NC(=O)Nc2ccc(Oc3ccnc4[nH]ccc34)cc2F)n(-c2ccccc2)n1 [Ib-1, 1-(4-((1H-pyrrolo[2,3-b]pyridin-4-yl)oxy)-2-fluorophenyl)-3-(3-(tert-butyl)-1-phenyl-1H-pyrazol-5-yl)urea]	> 1500
CC(C)(C)c1cc(NC(=O)Nc2ccc(Oc3ccnc4[nH]ccc34)c(C(F)(F)F)c2)n(-c2ccccc2)n1 [Ib-2, 1-(4-((1H-pyrrolo[2,3-]pyridin-4-yl)oxy)-3-(TRIFLUOROMETHYL)phenyl)-3-(3-(tert-butyl)-1-phenyl-1H-pyrazol-5-yl)urea]	> 1500
CC(C)(C)c1cc(NC(=O)Nc2ccc(Oc3ncnc4[nH]ccc34)cc2F)n(-c2ccccc2)n1 [Ib-3, 1-(4-((7H-pyrrolo[2,3-d]pyrimidin-4-yl)oxy)-2-fluorophenyl)-3-(3-(tert-butyl)-1-phenyl-1H-pyrazol-5-yl)urea]	> 1500
CC(C)(C)c1cc(NC(=O)Nc2ccc(Oc3ccnc4[nH]cc(Cl)c34)cc2F)n(-c2ccccc2)n1 [Ib-6, 1-(3-(tert-butyl)-1-phenyl-1H-pyrazol-5-yl)-3-(4-((3-chloro-1H-pyrrolo[2,3-b]pyridin-4-yl)oxy)-2-fluorophenyl)urea]	501 to 1500
Cn1nc(C(C)(C)C)cc1NC(=O)Nc1ccc(Oc2ccnc3[nH]cc(Cl)c23)cc1F [Ib-7, 1-(3-(tert-butyl)-1-methyl-1H-pyrazol-5-yl)-3-(4-((3-chloro-1H-pyrrolo[2,3-b]pyridin-4-yl)oxy)-2-fluorophenyl)urea]	501 to 1500
Cc1cc(NC(=O)Nc2ccc(Oc3ccnc4[nH]cc(Cl)c34)cc2F)n(-c2ccc(C#N)cc2)n1 [Ib-9, 1-(4-((3-chloro-1H-pyrrolo[2,3-b]pyridin-4-yl)oxy)-2-fluorophenyl)-3-(1-(4-cyanophenyl)-3-methyl-1H-pyrazol-5-yl)urea]	> 1500
Cc1cc(NC(=O)Nc2ccc(Oc3ccnc4[nH]cc(Cl)c34)cc2F)n(-c2ccccc2)n1 [Ib-10, 1-(4-((3-chloro-1-pyrrolo[2,3-b]pyridin-4-yl)oxy)-2-fluorophenyl)-3-(3-methyl-1-phenyl-1H-pyrazol-5-yl)urea]	> 1500
O=C(Nc1ccc(Oc2ccnc3[nH]cc(Cl)c23)cc1F)Nc1cc(C2CC2)nn1-c1ccccc1 [Ib-11, 1-(4-((3-chloro-1H-pyrrolo[2,3-b]pyridin-4-yl)oxy)-2-fluorophenyl)-3-(3-cyclopropyl-1-phenyl-1H-pyrazol-5-yl)urea]	501 to 1500
CC(C)(C)c1cc(NC(=O)Nc2ccc(Oc3ncnc4[nH]cc(Cl)c34)cc2F)n(-c2ccccc2)n1 [Ib-13, 1-(3-(tert-butyl)-1-phenyl-1H-pyrazol-5-yl)-3-(4-((5-chloro-7H-pyrrolo[2,3-b]pyrimidin-4-yl)oxy)-2-fluorophenyl)urea]	> 1500
CC(C)(C)c1cc(NC(=O)Nc2cc(F)c(Oc3ccnc4[nH]cc(Cl)c34)cc2F)n(-c2ccccc2)n1 [Ib-15]	> 1500
